Test results published in US20160113932A1, “TREATMENT OF CANCERS USING PI3 KINASE ISOFORM MODULATORS” (INFINITY PHARMACEUTICALS, INC., priority 2013, published 2016).

Legend:
RL = assay: Combination with BTK inhibitor, 72 h ATPLite, 6x6 dose matrix (follicular lymphoma); assay type: cell-based; details: in combination with Compound 292
Experimental: (§1) The method is described as follows. Cells are thawed from a liquid nitrogen preserved state. Once cells have been expanded and divide at their expected doubling times, screening begins. Cells are seeded in growth media in either black 1536-well or 384-well tissue culture treated plates. […] These Tzero (T0) plates are read using ultra-sensitive luminescence on Envision plate readers (Perkin Elmer). […] All data points are collected via automated processes, quality controlled and analyzed using Zalicus software.
(§2) I ranges from 0% (when T=V) to 100% (when T=0). […] The measure of effect in the experiment can be the inhibition of cellular response relative to the untreated level (vehicle alone). For untreated vehicle and treated levels V and T, a fractional inhibition 1=1−T/V is calculated. The inhibition ranges from 0% at the untreated level to 100% when T=0 Inhibition levels are negative for agents that actually increase levels. Other effect measures, such as an activity ratio r=T/V may be more appropriate for some assays. When activity ratios (e.g, fold increase over […] control) are being used, the effect can be measured using an induction I=1n(T/V). With this definition, all effect expressions are the same as for inhibition.
(§3) Growth Inhibition (GI) is used as a measure of cell viability. […] A GI reading of 100% represents complete growth inhibition-T72 compound-treated and T0 vehicle signals are matched. […] A GI reading of 200% represents complete death of all cells in the culture well. Compounds reaching an activity plateau of GI 200% are considered cytotoxic. GI is calculated by applying the following test and equation: […]
(§4) Combination analysis data were collected in a 6×6 dose matrix. Synergy is calculated by comparing a combination's response to those of its single compound, against the drug-with-itself dose-additive reference model. Deviations from dose additivity may be assessed visually on an isobologram or numerically with a Combination Index (CI). […] Additive effect is CI=1.0. […] Antagonistic effect is CI>1.0.
(§5) To measure combination effects in excess of Loewe additivity, a scalar measure to characterize the strength of synergistic interaction termed the Synergy Score is devised. The Synergy Score is calculated as: […]
(§6) The fractional inhibition for each component agent and combination point in the matrix is calculated relative to the median of all vehicle-treated control wells. The Synergy Score equation integrates the experimentally-observed activity volume at each point in the matrix in excess of a model surface numerically derived from the activity of the component agents using the Loewe model for additivity. Additional terms in the Synergy Score equation (above) are used to normalize for various dilution factors used for individual agents and to allow for comparison of synergy scores across an entire experiment. The inclusion of positive inhibition gating or an Idata multiplier removes noise near the zero effect level, and biases results for synergistic interactions at that occur at high activity levels.
(§7) Loewe Volume (Loewe Vol) is used to assess the overall magnitude of the combination interaction in excess of the Loewe additivity model. Loewe Volume is particularly useful when distinguishing synergistic increases in a phenotypic activity (positive Loewe Volume) versus synergistic antagonisms (negative Loewe Volume). […] This model defines additivity as a non-synergistic combination interaction where the combination dose matrix surface should be indistinguishable from either drug crossed with itself.

RPMI-8226 = assay: Combination with BTK inhibitor, 72 h ATPLite, 6x6 dose matrix (multiple myeloma); assay type: cell-based; details: in combination with Compound 292
Experimental: as §1, §2, §3, §4, §5
The fractional inhibition for each component agent and combination point in the matrix is calculated relative to the median of all vehicle-treated control wells. The Synergy Score equation integrates the experimentally-observed activity volume at each point in the matrix in excess of a model surface numerically derived from the activity of the component agents using the Loewe model for additivity. […]

KARPAS-299 = details: in combination with Compound 292
Experimental: as §1, §2, §3, §4, §5, §6, §7

SU-DHL-4-epst = details: in combination with Compound 292
Experimental: as §1, §2, §3, §4, §5, §6, §7

KARPAS-422 = details: in combination with Compound 292
Experimental: as §1, §2, §3, §4, §5, §6, §7

OCI-Ly7 = details: in combination with Compound 292
Experimental: as §1, §2, §3, §4, §5, §6, §7

Jeko-1 = details: in combination with Compound 292
Experimental: as §1, §2, §3, §4, §5, §6, §7

GRANTA-519 = details: in combination with Compound 292
Experimental: as §1, §2, §3, §4, §5, §6, §7

NCI-H929 = details: in combination with Compound 292
Experimental: as §1, §2, §3, §4, §5, §6, §7

Farage = details: in combination with Compound 292
Experimental: as §1, §2, §3, §4, §5, §6, §7

U-2932 = details: in combination with Compound 292
Experimental: as §1, §2, §3, §4, §5, §6, §7

HH = details: in combination with Compound 292
Experimental: as §1, §2, §3, §4, §5, §6, §7

HBL-1 = details: in combination with Compound 292
Experimental: as §1, §2, §3, §4, §5, §6, §7

Mino = details: in combination with Compound 292
Experimental: as §1, §2, §3, §4, §5, §6, §7

OCI-LY3 = details: in combination with Compound 292
Experimental: as §1, §2, §3, §4, §5, §6, §7

WSU-NHL = details: in combination with Compound 292
Experimental: as §1, §2, §3, §4, §5, §6, §7

DOHH-2 = details: in combination with Compound 292
Experimental: as §1, §2, §3, §4, §5, §6, §7

SU-DHL-10-epst = details: in combination with Compound 292
Experimental: as §1, §2, §3, §4, §5, §6, §7

TMD8 = details: in combination with Compound 292
Experimental: as §1, §2, §3, §4, §5, §6, §7

OPM-2 = details: in combination with Compound 292
Experimental: as §1, §2, §3, §4, §5, §6, §7

PI3K α = molecular target: T1, PI3K α (Homo sapiens, UniProt P42336); assay: PI3K lipid kinase inhibition assay (TLC or HTRF), PI3K α; assay type: biochemical; details: In Vitro
T1 construct: purchased Upstate
Source text: (§8) Other commercial kits or systems for assaying PI3K activities are available. […] An exemplary system is PI 3-Kinase (human) HTRF™ Assay from Upstate.

PI3K β = molecular target: T2, PI3K β (Homo sapiens, UniProt P42338); assay: PI3K lipid kinase inhibition assay (TLC or HTRF), PI3K β; assay type: biochemical; details: In Vitro
T2 construct: purchased Upstate
Source text: as §8

PI3K γ = molecular target: T3, PI3K γ (Homo sapiens, UniProt P48736); assay: PI3K lipid kinase inhibition assay (TLC or HTRF), PI3K γ; assay type: biochemical; details: In Vitro
T3 construct: purchased Sigma
Source text: as §8

PI3K δ = PI3K δ (Homo sapiens, UniProt O00329); assay: PI3K lipid kinase inhibition assay (TLC or HTRF), PI3K δ; assay type: biochemical; set-up: purchased Upstate; details: In Vitro
Source text: as §8

MJ = assay: CTCL cytotoxicity, 72 hours; assay type: cell-based; details: MJ cells
Experimental: MJ and HuT78 cells were grown in IMDM 20% FBS, and HH cells were grown in RPMI 10% FBS.

Loucy = assay: T-ALL growth inhibition; assay type: cell-based, human; details: Loucy ALL cells, various concentrations
Experimental: To further explore the individual contributions of the varying PI3K isoforms on T-ALL cell growth, Loucy ALL cells were treated with doxorubicin and various PI3K inhibitors as shown in FIG. 32 at various concentrations as denoted in the figure.

T1 sequence (P42336 whole entry): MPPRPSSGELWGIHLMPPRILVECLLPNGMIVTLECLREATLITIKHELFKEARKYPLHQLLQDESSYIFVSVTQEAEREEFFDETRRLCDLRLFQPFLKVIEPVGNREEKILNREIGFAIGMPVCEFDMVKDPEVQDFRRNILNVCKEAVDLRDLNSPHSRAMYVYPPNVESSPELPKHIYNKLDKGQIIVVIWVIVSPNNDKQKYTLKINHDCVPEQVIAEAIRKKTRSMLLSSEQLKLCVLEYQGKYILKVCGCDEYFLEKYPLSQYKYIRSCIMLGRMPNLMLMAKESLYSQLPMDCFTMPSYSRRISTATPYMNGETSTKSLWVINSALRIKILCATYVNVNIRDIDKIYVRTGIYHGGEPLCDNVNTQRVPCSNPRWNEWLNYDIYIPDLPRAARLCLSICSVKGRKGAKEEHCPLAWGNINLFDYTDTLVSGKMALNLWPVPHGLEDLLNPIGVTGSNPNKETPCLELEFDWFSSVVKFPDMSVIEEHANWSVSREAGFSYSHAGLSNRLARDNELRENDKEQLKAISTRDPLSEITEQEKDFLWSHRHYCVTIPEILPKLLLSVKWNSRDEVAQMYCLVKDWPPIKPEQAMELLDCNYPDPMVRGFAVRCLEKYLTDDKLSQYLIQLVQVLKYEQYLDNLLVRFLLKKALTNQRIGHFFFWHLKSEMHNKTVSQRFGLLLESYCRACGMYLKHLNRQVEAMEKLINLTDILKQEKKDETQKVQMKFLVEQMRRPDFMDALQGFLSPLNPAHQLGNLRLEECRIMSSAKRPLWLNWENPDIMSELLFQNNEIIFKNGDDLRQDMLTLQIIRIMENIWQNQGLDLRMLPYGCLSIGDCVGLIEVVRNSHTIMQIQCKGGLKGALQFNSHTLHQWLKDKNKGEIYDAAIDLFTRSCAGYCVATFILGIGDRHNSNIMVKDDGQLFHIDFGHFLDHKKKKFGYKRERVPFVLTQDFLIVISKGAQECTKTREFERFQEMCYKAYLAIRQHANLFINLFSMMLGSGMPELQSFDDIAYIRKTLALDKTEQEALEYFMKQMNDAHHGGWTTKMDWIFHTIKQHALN
T1 sequence (P27986 whole entry partner): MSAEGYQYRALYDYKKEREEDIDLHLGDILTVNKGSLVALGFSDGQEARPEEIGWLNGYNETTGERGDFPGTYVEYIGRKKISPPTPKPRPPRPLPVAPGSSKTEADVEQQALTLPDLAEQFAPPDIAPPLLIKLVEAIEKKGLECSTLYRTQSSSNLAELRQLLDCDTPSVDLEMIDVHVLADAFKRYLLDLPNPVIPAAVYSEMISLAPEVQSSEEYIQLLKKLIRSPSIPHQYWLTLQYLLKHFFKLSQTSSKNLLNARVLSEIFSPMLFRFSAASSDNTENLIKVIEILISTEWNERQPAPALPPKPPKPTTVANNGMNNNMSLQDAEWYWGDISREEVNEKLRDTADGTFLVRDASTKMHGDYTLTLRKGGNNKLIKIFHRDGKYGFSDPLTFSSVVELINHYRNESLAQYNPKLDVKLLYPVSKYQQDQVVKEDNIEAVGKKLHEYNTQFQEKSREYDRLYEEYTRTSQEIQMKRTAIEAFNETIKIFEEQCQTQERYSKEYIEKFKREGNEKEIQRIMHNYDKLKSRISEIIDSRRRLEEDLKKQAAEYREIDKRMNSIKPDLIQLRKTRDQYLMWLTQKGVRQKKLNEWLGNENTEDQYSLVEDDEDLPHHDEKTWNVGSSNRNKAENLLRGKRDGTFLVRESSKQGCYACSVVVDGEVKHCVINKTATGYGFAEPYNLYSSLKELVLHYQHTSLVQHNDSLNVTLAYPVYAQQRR
T2 sequence (P42338 whole entry): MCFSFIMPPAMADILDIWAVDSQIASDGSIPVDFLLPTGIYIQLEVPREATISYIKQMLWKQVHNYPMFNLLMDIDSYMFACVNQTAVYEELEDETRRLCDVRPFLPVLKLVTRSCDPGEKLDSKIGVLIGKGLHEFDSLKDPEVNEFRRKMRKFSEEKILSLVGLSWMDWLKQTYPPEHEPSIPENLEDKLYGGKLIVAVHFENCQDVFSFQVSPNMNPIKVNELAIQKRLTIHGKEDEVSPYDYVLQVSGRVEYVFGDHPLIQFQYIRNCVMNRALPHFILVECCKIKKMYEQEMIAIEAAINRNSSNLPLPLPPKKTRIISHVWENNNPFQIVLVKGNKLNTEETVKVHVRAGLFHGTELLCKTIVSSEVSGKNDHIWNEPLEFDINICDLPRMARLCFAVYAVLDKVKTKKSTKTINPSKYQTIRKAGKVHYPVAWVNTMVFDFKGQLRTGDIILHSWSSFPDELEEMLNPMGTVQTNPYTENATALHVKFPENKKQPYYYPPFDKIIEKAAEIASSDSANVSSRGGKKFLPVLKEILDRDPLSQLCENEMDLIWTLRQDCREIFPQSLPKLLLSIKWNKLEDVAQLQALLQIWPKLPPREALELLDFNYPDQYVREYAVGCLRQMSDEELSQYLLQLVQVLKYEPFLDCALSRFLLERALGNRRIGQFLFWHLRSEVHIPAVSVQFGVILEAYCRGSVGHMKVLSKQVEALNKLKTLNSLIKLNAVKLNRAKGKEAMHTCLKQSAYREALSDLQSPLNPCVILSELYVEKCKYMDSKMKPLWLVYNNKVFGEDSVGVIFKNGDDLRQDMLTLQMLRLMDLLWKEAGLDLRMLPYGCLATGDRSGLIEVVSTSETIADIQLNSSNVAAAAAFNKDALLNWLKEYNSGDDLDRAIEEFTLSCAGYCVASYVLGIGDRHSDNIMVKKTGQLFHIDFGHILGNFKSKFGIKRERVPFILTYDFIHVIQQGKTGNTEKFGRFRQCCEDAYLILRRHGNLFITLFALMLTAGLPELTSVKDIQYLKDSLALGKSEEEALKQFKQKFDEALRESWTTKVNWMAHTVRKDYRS
T2 sequence (P27986 whole entry partner): as the sequence (P27986 whole entry partner) above
T3 sequence (P48736 whole entry): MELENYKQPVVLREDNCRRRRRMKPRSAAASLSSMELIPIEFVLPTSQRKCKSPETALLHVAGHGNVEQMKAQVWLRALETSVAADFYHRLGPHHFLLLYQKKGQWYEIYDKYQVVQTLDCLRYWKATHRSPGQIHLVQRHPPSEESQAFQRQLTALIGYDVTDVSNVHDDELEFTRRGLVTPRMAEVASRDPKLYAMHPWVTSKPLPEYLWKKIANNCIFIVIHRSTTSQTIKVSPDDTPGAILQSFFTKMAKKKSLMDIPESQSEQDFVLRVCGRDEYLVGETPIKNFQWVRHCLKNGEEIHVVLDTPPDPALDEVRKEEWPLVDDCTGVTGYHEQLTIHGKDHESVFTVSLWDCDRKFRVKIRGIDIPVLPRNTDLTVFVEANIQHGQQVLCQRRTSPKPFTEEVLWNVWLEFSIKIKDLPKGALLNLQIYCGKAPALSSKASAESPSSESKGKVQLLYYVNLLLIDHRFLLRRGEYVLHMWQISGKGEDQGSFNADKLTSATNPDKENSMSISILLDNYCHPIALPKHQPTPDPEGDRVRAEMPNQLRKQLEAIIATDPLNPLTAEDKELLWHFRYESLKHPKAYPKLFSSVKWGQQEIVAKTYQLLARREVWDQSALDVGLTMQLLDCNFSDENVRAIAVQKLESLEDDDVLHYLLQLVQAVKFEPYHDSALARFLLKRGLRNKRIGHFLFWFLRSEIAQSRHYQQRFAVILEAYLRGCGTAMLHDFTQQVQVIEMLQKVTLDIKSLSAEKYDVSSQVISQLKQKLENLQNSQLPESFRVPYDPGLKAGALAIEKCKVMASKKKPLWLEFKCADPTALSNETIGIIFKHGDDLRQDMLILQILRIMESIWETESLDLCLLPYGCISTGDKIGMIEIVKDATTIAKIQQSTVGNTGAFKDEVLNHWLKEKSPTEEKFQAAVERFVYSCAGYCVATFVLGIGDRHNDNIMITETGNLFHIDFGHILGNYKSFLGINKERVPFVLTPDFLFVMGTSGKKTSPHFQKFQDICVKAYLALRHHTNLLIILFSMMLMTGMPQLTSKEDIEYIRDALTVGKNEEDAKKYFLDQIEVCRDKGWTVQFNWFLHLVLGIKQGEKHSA
PI3K δ, sequence (O00329 whole entry): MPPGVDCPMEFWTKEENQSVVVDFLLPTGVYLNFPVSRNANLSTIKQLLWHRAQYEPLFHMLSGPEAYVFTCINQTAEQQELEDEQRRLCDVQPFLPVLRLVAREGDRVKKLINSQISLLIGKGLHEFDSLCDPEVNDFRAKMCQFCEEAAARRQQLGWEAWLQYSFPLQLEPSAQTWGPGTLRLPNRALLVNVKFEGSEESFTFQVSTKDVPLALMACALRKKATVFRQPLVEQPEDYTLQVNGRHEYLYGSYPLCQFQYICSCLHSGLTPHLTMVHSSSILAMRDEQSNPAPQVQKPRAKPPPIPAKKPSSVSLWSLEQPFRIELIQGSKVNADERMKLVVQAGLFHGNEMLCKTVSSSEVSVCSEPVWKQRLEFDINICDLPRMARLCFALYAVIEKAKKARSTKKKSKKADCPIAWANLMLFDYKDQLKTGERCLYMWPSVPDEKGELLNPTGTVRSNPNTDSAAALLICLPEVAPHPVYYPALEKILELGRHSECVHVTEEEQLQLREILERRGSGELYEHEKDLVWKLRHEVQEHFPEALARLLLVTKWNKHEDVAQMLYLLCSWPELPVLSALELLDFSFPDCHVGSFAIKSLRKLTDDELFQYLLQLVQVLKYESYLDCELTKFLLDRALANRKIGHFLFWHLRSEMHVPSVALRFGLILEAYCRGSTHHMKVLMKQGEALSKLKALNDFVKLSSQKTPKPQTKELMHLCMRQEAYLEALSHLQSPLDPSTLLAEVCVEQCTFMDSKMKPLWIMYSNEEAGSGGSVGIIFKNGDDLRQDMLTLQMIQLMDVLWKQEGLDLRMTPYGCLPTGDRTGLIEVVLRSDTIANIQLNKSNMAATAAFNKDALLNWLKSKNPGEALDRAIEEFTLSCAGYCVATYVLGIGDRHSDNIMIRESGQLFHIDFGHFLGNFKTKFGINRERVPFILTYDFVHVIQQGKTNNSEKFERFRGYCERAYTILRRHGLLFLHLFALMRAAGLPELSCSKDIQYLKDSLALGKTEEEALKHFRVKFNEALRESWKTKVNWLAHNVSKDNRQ
PI3K δ, sequence (P27986 whole entry partner): as the sequence (P27986 whole entry partner) above

## C=CC(=O)Nc1cccc(Nc2nc(Nc3ccc(OCCOC)cc3)ncc2F)c1 [AVL-292, N-(3-((5-fluoro-2-((4-(2-methoxyethoxy)phenyl)amino)pyrimidin-4-yl)amino)phenyl)acrylamide]
RL
  Synergy Score (growth inhibition): A1 (A1=0.0001 to <1)
  Synergy Score (inhibition): A1 (A1=0.0001 to <1)
RPMI-8226
  CI50 (growth inhibition): U (U=0.7 to <1)
  CI50 (inhibition): W (W=≧1)
  Synergy Score (growth inhibition): A1 (A1=0.0001 to <1)
  Synergy Score (inhibition): A1 (A1=0.0001 to <1)
KARPAS-299
  CI50 (growth inhibition): U (U=0.7 to <1)
  Synergy Score (growth inhibition): A1 (A1=0.0001 to <1)
  Synergy Score (inhibition): A1 (A1=0.0001 to <1)
SU-DHL-4-epst
  CI50 (growth inhibition): T (T=0.5 to <0.7)
  CI50 (inhibition): S (S=0.01 to <0.5)
  Synergy Score (growth inhibition): A2 (A2=1 to <3)
  Synergy Score (inhibition): A2 (A2=1 to <3)
KARPAS-422
  CI50 (growth inhibition): U (U=0.7 to <1)
  CI50 (inhibition): T (T=0.5 to <0.7)
  Synergy Score (growth inhibition): A2 (A2=1 to <3)
  Synergy Score (inhibition): A1 (A1=0.0001 to <1)
OCI-Ly7
  CI50 (growth inhibition): W (W=≧1)
  Synergy Score (growth inhibition): A1 (A1=0.0001 to <1)
  Synergy Score (inhibition): A1 (A1=0.0001 to <1)
Jeko-1
  CI50 (growth inhibition): U (U=0.7 to <1)
  CI50 (inhibition): U (U=0.7 to <1)
  Synergy Score (growth inhibition): A1 (A1=0.0001 to <1)
  Synergy Score (inhibition): A1 (A1=0.0001 to <1)
GRANTA-519
  CI50 (growth inhibition): W (W=≧1)
  Synergy Score (growth inhibition): A1 (A1=0.0001 to <1)
  Synergy Score (inhibition): A1 (A1=0.0001 to <1)
NCI-H929
  CI50 (growth inhibition): U (U=0.7 to <1)
  CI50 (inhibition): U (U=0.7 to <1)
  Synergy Score (growth inhibition): A2 (A2=1 to <3)
  Synergy Score (inhibition): A1 (A1=0.0001 to <1)
Farage
  CI50 (growth inhibition): S (S=0.01 to <0.5)
  CI50 (inhibition): S (S=0.01 to <0.5)
  Synergy Score (growth inhibition): A3 (A3=>3)
  Synergy Score (inhibition): A2 (A2=1 to <3)
U-2932
  CI50 (growth inhibition): T (T=0.5 to <0.7)
  CI50 (inhibition): W (W=≧1)
  Synergy Score (growth inhibition): A2 (A2=1 to <3)
  Synergy Score (inhibition): A1 (A1=0.0001 to <1)
HH
  CI50 (growth inhibition): T (T=0.5 to <0.7)
  CI50 (inhibition): U (U=0.7 to <1)
  Synergy Score (growth inhibition): A2 (A2=1 to <3)
  Synergy Score (inhibition): A2 (A2=1 to <3)
HBL-1
  CI50 (growth inhibition): T (T=0.5 to <0.7)
  CI50 (inhibition): W (W=≧1)
  Synergy Score (growth inhibition): A2 (A2=1 to <3)
  Synergy Score (inhibition): A1 (A1=0.0001 to <1)
Mino
  CI50 (growth inhibition): S (S=0.01 to <0.5)
  CI50 (inhibition): S (S=0.01 to <0.5)
  Synergy Score (growth inhibition): A3 (A3=>3)
  Synergy Score (inhibition): A2 (A2=1 to <3)
OCI-LY3
  CI50 (growth inhibition): U (U=0.7 to <1)
  Synergy Score (growth inhibition): A1 (A1=0.0001 to <1)
  Synergy Score (inhibition): A1 (A1=0.0001 to <1)
WSU-NHL
  CI50 (growth inhibition): T (T=0.5 to <0.7)
  CI50 (inhibition): S (S=0.01 to <0.5)
  Synergy Score (growth inhibition): A3 (A3=>3)
  Synergy Score (inhibition): A2 (A2=1 to <3)
DOHH-2
  CI50 (growth inhibition): T (T=0.5 to <0.7)
  CI50 (inhibition): T (T=0.5 to <0.7)
  Synergy Score (growth inhibition): A3 (A3=>3)
  Synergy Score (inhibition): A2 (A2=1 to <3)
SU-DHL-10-epst
  CI50 (growth inhibition): T (T=0.5 to <0.7)
  CI50 (inhibition): T (T=0.5 to <0.7)
  Synergy Score (growth inhibition): A3 (A3=>3)
  Synergy Score (inhibition): A2 (A2=1 to <3)
TMD8
  CI50 (growth inhibition): S (S=0.01 to <0.5)
  CI50 (inhibition): S (S=0.01 to <0.5)
  Synergy Score (growth inhibition): A3 (A3=>3)
  Synergy Score (inhibition): A2 (A2=1 to <3)
OPM-2
  CI50 (growth inhibition): T (T=0.5 to <0.7)
  CI50 (inhibition): U (U=0.7 to <1)
  Synergy Score (growth inhibition): A2 (A2=1 to <3)
  Synergy Score (inhibition): A1 (A1=0.0001 to <1)

## CC(=O)Nc1nc2ccc(-c3nn(Cc4cc5cccc(C)c5c(=O)n4-c4ccccc4C)c4ncnc(N)c34)cc2s1 [Compound 168]
PI3K α
  IC50: < 10000 nM

## Cc1cccc2cc(Cn3nc(-c4ccc5nc(N)oc5c4)c4c(N)ncnc43)n(-c3ccccc3)c(=O)c12 [Compound 235]
PI3K α
  IC50: < 10000 nM
PI3K β
  IC50: < 10000 nM
PI3K γ
  IC50: < 100 nM

## Cc1cccc2cc(C(C)Nc3nc(Cl)ncc3N)n(-c3ccccc3)c(=O)c12 (stereo not drawn) [Compound 322]
PI3K α
  IC50: > 10000 nM
PI3K β
  IC50: > 10000 nM
PI3K δ
  IC50: > 10000 nM
PI3K γ
  IC50: > 10000 nM

## CC[C@H](Nc1ncnc2[nH]cnc12)c1nc2cccc(F)c2c(=O)n1-c1ccccc1 [GS-1101, (S)-2-(1-(9H-purin-6-ylamino)propyl)-5-fluoro-3-phenylquinazolin-4(3H)-one, reference compound]
MJ
  cytotoxicity, sensitivity: resistant

## COc1cccc2c1C(=O)c1c(O)c3c(c(O)c1C2=O)C[C@@](O)(C(=O)CO)C[C@@H]3O[C@H]1C[C@H](N)[C@H](O)[C@H](C)O1 [doxorubicin, reference compound]
Loucy
  percent inhibition of Loucy cells with dose: different pattern
